Assay results reported in PMC8071358, “Targeting of the Essential acpP, ftsZ, and rne Genes in Carbapenem-Resistant Acinetobacter baumannii by Antisense PNA Precision Antibacterials” (Biomedicines, 2021).
{(KFF)3K-eg1} = H-(KFF)3K peptide (K lysine, F phenylalanine) with eg1 linker (8-amino-3,6-dioxaoctanoyl), on the PNA N terminus (5' end); {(kff)3k-eg1} = D-form (kff)3k peptide with eg1 linker (8-amino-3,6-dioxaoctanoyl), on the PNA N terminus; {(R-Ahx-R)4-Ahx} = H-(R-Ahx-R)4-Ahx peptide (R arginine, Ahx 6-aminohexanoyl), on the PNA N terminus; {NH2} = C-terminal amide

Columns and labels:
Assay in all cases: BPP-PNA MIC, broth microdilution
Type in all cases: cell-based, Acinetobacter baumannii
CRAB strain AC46 = system: CRAB strain AC46
Protocol: (§1) MIC values were determined by broth microdilution according to standard protocols with a few modifications. […] Then, 180 µL bacterial solutions were dispensed into a low-bind 96-well plate (Thermo-Scientific, Roskilde, Denmark) along with 20 µL of BPP-PNA compound (BPP-PNA was serially diluted 2-fold from 16 to 0.5 µM in a 96-well plate). The plate was incubated in a Tecan Genios plate reader (GMI, Minnesota, Ramsey, USA) at 37 °C for 18 h with linear shaking, OD was measured every 20 min at 595 nm. […] The minimum bactericidal concentration (MBC) values were determined by plating 10 µL samples from the wells with no visible turbidity onto Mueller–Hinton agar plates. The MBC is determined the lowest concentration of BPP-PNA that reduces the viability of the initial bacterial inoculum by ≥99.9% (3-log reduction in CFU/mL). A minimum of two independent experiments (biological replicates) of the assay were conducted, and two technical replicates were used in each experiment for each bacterium, compound, and concentration.

A. baumannii SSI1104 = system: A. baumannii SSI1104
Protocol: as §1

CRAB strain AC44 = system: CRAB strain AC44
Protocol: (§2) MIC values were determined by broth microdilution according to standard protocols with a few modifications. An overnight bacterial cell culture was diluted to approximately 5 × 10^5 CFU/mL in non-cation-adjusted Muller Hinton Broth (MHB). Then, 180 µL bacterial solutions were dispensed into a low-bind 96-well plate (Thermo-Scientific, Roskilde, Denmark) along with 20 µL of BPP-PNA compound (BPP-PNA was serially diluted 2-fold from 16 to 0.5 µM in a 96-well plate). The plate was incubated in a Tecan Genios plate reader (GMI, Minnesota, Ramsey, USA) at 37 °C for 18 h with linear shaking, OD was measured every 20 min at 595 nm. […] The minimum bactericidal concentration (MBC) values were determined by plating 10 µL samples from the wells with no visible turbidity onto Mueller–Hinton agar plates. The MBC is determined the lowest concentration of BPP-PNA that reduces the viability of the initial bacterial inoculum by ≥99.9% (3-log reduction in CFU/mL). A minimum of two independent experiments (biological replicates) of the assay were conducted, and two technical replicates were used in each experiment for each bacterium, compound, and concentration.

A. baumannii ATCC 19606 = details: 37 °C, 18 h
Protocol: as §2

CRAB strain AC2 = system: CRAB strain AC2
Protocol: as §2

[1] = Table 4 (anti-rne), brand of medium not given, non-cation-adjusted MHB by method
[2] = MHB without cation (Oxoid), 37 °C, 18 h
[3] = Sigma MHB medium without cation, 37 °C, 18 h
[4] = Sigma MHB medium without cation, ~5 × 10^5 CFU/mL, OD595 < 0.1

| Substance | MIC, AC44 (CRAB strain AC44; [1]) | MIC, ATCC 19606 (A. baumannii ATCC 19606; [1]) | MIC, AC2 (CRAB strain AC2; [1]) | MIC, AC44 (CRAB strain AC44; [2]) | MIC, ATCC 19606 (A. baumannii ATCC 19606; MHB without cation (Oxoid)) | other results |
| --- | --- | --- | --- | --- | --- | --- |
| H-(KFF)3K-eg1-ATACGTTTCAT-NH2 (all peptide nucleic acid (PNA), 5' {(KFF)3K-eg1}, 3' {NH2}) [PNA 5654, anti-rne peptide-PNA conjugate, match, +1 to +11] | 1 µM | 2 µM | 2 µM |  |  | MIC, AC46 (CRAB strain AC46; [1]): 2 µM; MIC, SSI 1104 (A. baumannii SSI1104; [1]): 2 µM |
| H-(KFF)3K-eg1-ATCCGTTTAAT-NH2 (all peptide nucleic acid (PNA), 5' {(KFF)3K-eg1}, 3' {NH2}) [PNA 5821, anti-rne mismatch control of 5654] | 1 µM | 4 µM | 2 µM |  |  | MIC, AC46 (CRAB strain AC46; [1]): 2 µM; MIC, SSI 1104 (A. baumannii SSI1104; [1]): 2 µM |
| H-(KFF)3K-eg1-ATGAGGCCATG-NH2 (all peptide nucleic acid (PNA), 5' {(KFF)3K-eg1}, 3' {NH2}) [PNA 5657, anti-ftsZ peptide-PNA conjugate, match, −1 to +10] |  |  |  | 16 µM | >16 µM |  |
| H-(KFF)3K-eg1-GGCCATGACCT-NH2 (N-terminal (KFF)3K-eg1 peptide, C-terminal amide, backbone not given here, further chemistry not given here) [PNA 5658, anti-ftsZ peptide-PNA conjugate, match, −5 to +6] |  |  |  | 8 µM | 4 µM | MIC, SSI 1104 (A. baumannii SSI1104; [2]): 8 µM |
| H-(KFF)3K-eg1-GTTTCATGGGT-NH2 (all peptide nucleic acid (PNA), 5' {(KFF)3K-eg1}, 3' {NH2}) [PNA 5655, anti-rne peptide-PNA conjugate, match, −4 to +7] | 8 µM | 4 µM | 8 µM |  |  |  |
| H-(R-Ahx-R)4-Ahx-GAGTCCAGGAC-NH2 (all peptide nucleic acid (PNA), 5' {(R-Ahx-R)4-Ahx}, 3' {NH2}) [PNA 5616, anti-ftsZ (R-Ahx-R)4-Ahx-PNA, mismatch] |  |  |  | >16 µM | >16 µM |  |
| H-(kff)3k -eg1-TGACTTGTCAC-NH2 (all peptide nucleic acid (PNA), 5' {(kff)3k-eg1}, 3' {NH2}) [PNA 5824, anti-acpP PNA with D-form peptide, mismatch] |  |  |  |  |  | MIC, AC46 (CRAB strain AC46; [3]): 4 µM; MIC, SSI 1104 (A. baumannii SSI1104; [3]): 8 µM; MIC, AC44 (CRAB strain AC44; [3]): 4 µM; MIC, ATCC 19606 (A. baumannii ATCC 19606; [4]): 8 µM; MIC, AC2 (CRAB strain AC2; [3]): 8 µM |
| H-(kff)3k-eg1-TGATTTGCCAC-NH2 (all peptide nucleic acid (PNA), 5' {(kff)3k-eg1}, 3' {NH2}) [PNA 5823, anti-acpP PNA with D-form peptide, match] |  |  |  |  |  | MIC, AC46 (CRAB strain AC46; [3]): 4 µM; MIC, SSI 1104 (A. baumannii SSI1104; [3]): 4 µM; MIC, AC44 (CRAB strain AC44; [3]): 4 µM; MIC, ATCC 19606 (A. baumannii ATCC 19606; [4]): 4 µM; MIC, AC2 (CRAB strain AC2; [3]): 4 µM |
